The values below come from patent US20050282818A1, “Ubiquitin ligase inhibitors” (Rigel Pharmaceuticals, Inc., priority 2004, published 2005).

One experiment addresses APC11/APC2 (Homo sapiens, UniProt Q9NYG5+Q9UJX6). The experiment is described as follows: APC-11/APC-2 ligase assay (APC auto ubiquitination). It is filed as biochemical. Particulars: APC assay. On the procedure:
For the assays described below, the TRAF6/Uev1A/UBC13 assay is the biochemical plate-based assay of TRAF6 ligase activity using Ubc13 as the E2 enzyme. The gel-based assay is the biochemical solution-based TRAF6 ligase assay (by SDS-PAGE and Western blot) to confirm the plate-based ELISA assay. The APC assay is an assay which is another E3 ligase (APC2/APC11) biochemical assay.
E3 (His APC11/APC2— “APC”) auto ubiquitination was measured as described in U.S. patent application Ser. No. 09/826,312 (Publication No. U.S. 2002 0042083 A1), which is incorporated by reference in its entirety. Details of the protocol are described below. Activity in the presence of the compound was determined relative to a parallel control in which only DMSO was added. Values of the IC50 were typically determined using 6 or 8 different concentrations of the compound, although as few as 2 concentrations may be used to approximate the IC50 value.
Nickel coated 96 well plates (Pierce 15242) were blocked for 1 hour with 100 μl of blocking buffer at room temperature. The plates were washed 4 times with 225 μl of 1 […]PBS and 80 μl of the reaction buffer were added that contained 100 ng/well of Flag ubiquitin. To this, 10 μl of the test compound diluted in DMSO were added. After the test compound was added, 10 μl of E1 (human), E2 (Ubch5c), and APC in Protein Buffer was added to obtain a final concentration of 5 ng/well of E1, 20 ng/well of E2 and 100 ng/well of APC. The plates were shaken for 10 minutes and incubated at room temperature for 1 hour. After incubation, the plates were washed 4 times with 225 μl of 1×PBS and 100 μl/well of Antibody Mix were added to each well. The plates were incubated at room temperature for another hour after which they were washed 4 times with 225 μl of 1×PBS and 100 μl/well of Lumino substrate were added to each well. The luminescence was measured by using a BMG luminescence microplate reader. The Blocking Buffer (1% Casein in 1×PBS) was stored at 4° C. until use.
The reaction buffer consisted of 62.5 mM Tris pH 7.6 (Trizma Base—Sigma T 8524), 3 mM MgCl2 (Magnesium Chloride—Sigma M 2393), 1 mM DTT (Sigma D 9779), 2.5 mM ATP (Roche Boehringer Mann Corp. 635 316), 100 ng/well of Flag ubiquitin, 0.1% BSA (Sigma A 7906), and 0.05% Tween 20 (Sigma P 7949).
The Protein Buffer consisted of 20 mM Tris pH 7.6, 10% glycerol (Sigma G 5516) and 1 mM DTT.
The antibody mix consisted of 0.25% BSA (Sigma A 7906) in 1×PBS, 1/50,000 anti Flag (Sigma F 3165), 1/100,000 of anti Mouse IgG HRP (Jackson Imrunoresearch #115 035 146).
The substrate mix consisted of SuperSignal Substrate from Pierce (catalog number 37070ZZ) and was prepared by mixing 100 ml of the peroxide solution, 100 ml of the enhancer solution and 100 ml of Milli Q® water.

In experiment [1] the test system is ICAM-1 expression in A549 cells. As to the kind of experiment: ICAM assay (IL-1 induced ICAM-1/CD54 expression in A549 cells). It is filed as cell-based, human. From the text: The expression of intercellular adhesion molecule (ICAM)-1 in endothelial cells is pivotal in supporting lymphocyte migration across the vascular endothelium. TNF/IL-1 induces the NF-kB pathway in which NF-kB acts as a transcription factor and activation of NF-kB induces ICAM expression. IkB inhibits NF-KB by binding to it and retaining NF-kB in the cytoplasm. Upon cytokine stimulation, several signaling molecule including TRAF6, IKKs, and TAK1 are activated which lead to the phosphorylation of IkB. Phosphorylated IkB is then ubiquitinated by the SCF complex and degraded by proteasome, thereby releasing NF-kB to translocate into the nucleus. In the nucleus, NF-kB binds to DNA and activates transcription of various genes that are involved in inflammation, cell survival, and apoptosis. The ICAM assay is a primary assay for HTS as well as a cell based assay for TRAF6 inhibitors.
The following materials are used 96-well plates; F12K complete medium that includes 10% FBS and 1% P/S (penicillin/streptomycin); 1×PBS; 5 ug/ml IL-1, Human CD54 (CALTAG Laboratory, Cat#MHCD5400-4); anti-mouse-IgG (Jackson Lab, Cat#115-035 146); and A549 cells.
Procedure. 10,000 A549 cells/well were seeded in 100 μl F12K complete medium in a 96-well white plate. The seeded plate was incubate at 37° C. incubator in 5% CO2 overnight. After the overnight incubation, 4 μl of diluted test compound was added and incubated for 1 hour at 37° C. After the 1 hour incubation, 4 μl of 25 ng/ml IL-1 was added to each well and the cells were stimulated at 37° C. for 4 hours.
After stimulation, the cells were stained with CD54 (1:1000 diluted with medium) and anti-mouse IgG (1:1100 diluted with medium) for 1 hour. Subsequently, the medium was removed and each well was washed with 200 μl of PBS three times. Detection of activity was performed by addition of 100 μl/well of lumino substrate.

Another experiment has as its target T1, TRAF6/Uev1A/Ubc13 (Homo sapiens, UniProt Q9Y4K3).
T1 sequence (Q9Y4K3 1-522): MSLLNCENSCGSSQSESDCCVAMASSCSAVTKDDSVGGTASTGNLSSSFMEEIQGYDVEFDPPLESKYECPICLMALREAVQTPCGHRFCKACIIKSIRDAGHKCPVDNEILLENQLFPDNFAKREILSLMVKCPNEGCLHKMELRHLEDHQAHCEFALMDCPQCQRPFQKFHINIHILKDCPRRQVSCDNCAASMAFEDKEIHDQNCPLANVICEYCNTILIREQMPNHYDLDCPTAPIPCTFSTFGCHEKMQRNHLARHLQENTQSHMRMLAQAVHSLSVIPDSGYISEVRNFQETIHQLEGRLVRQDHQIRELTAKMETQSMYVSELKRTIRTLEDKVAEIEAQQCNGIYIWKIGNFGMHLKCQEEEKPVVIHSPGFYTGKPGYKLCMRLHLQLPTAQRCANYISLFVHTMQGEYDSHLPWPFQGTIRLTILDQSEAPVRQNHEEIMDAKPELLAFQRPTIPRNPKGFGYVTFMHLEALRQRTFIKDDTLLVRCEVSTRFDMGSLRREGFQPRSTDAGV
The experiment is described as follows: TRAF6/Uev1A/Ubc13 plate-based ubiquitin ligase assay. In kind it is biochemical. A digest of the protocol:
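Ligase activity was read as luminescence from anti-Flag/HRP detection of Flag-ubiquitin bound to casein-blocked Ni-plates alongside His-ubiquitin after a 1 h room-temperature reaction. Buffer: 62.5 mM Tris pH 7.5, 6.25 mM MgCl2, 1.0 mM DTT, 2 μM ATP; E1, Uev1a/Ubc13 and TRAF6 added last to start. IC50s derived across compound concentrations.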

APC11/APC2, sequence (Q9NYG5 whole entry): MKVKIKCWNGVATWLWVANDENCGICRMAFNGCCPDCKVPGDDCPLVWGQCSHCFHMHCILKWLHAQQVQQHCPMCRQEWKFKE
APC11/APC2, sequence (Q9UJX6 whole entry): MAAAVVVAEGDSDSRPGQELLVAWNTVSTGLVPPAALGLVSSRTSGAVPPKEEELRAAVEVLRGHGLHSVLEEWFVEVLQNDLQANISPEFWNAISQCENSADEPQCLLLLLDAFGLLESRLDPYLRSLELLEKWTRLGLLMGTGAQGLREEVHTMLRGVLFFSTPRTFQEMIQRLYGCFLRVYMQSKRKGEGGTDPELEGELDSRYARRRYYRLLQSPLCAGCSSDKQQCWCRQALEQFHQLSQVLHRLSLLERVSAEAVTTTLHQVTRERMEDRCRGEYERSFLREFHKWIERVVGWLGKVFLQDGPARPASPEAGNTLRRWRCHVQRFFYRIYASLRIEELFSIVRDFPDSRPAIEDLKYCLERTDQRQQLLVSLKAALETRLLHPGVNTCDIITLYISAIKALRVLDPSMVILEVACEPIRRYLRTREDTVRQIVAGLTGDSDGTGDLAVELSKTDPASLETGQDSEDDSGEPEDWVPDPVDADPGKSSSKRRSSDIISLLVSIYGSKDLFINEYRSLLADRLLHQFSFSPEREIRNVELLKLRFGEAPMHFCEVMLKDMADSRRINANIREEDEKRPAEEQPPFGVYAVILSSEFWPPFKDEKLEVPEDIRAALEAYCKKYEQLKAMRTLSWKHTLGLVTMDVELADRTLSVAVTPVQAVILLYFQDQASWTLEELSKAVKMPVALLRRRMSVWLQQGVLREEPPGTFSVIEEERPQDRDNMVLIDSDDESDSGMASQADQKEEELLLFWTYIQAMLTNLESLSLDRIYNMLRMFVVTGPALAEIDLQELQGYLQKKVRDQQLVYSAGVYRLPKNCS

One may read the IC50 as the concentration that inhibits the measured activity by half. A high value points to lower potency. Take `COc1cc(Nc2ccc(S(=O)(=O)Nc3cc(OC)c(Cl)cc3OC)c3nonc23)c(OC)cc1Cl` [compound 349, N-(4-chloro-2,5-dimethoxyphenyl)-7-([4-chloro-2,5-dimethoxyphenyl]amino)-2,1,3-benzoxadiazole-4-sulfonamide]: the IC50 at APC11/APC2 was 1 to 20 µM; in experiment [1] (ICAM assay), at least 20 µM; on TRAF6/Uev1A/Ubc13, at least 20 µM.

In the case of `Cc1c(NS(=O)(=O)c2ccc(Cl)c3nonc23)cccc1C(F)(F)F` [compound 350, 7-chloro-N-(2-methyl-3-[trifluoromethyl]phenyl)-2,1,3-benzoxadiazole-4-sulfonamide], the IC50 at APC11/APC2 is at least 20 µM; in experiment [1] (Homo sapiens, A549, ICAM assay), 1 to 20 µM; on TRAF6/Uev1A/Ubc13, at least 20 µM.

In the case of `Cc1ccc(F)cc1NS(=O)(=O)c1ccc(Cl)c2nonc12` [compound 351, 7-chloro-N-(5-fluoro-2-methylphenyl)-2,1,3-benzoxadiazole-4-sulfonamide], the IC50 is at least 20 µM against APC11/APC2; 1 to 20 µM in experiment [1] (Homo sapiens, A549, ICAM assay); at least 20 µM against TRAF6/Uev1A/Ubc13.

`Cc1cccc(C(C)C)c1NS(=O)(=O)c1ccc(Cl)c2nonc12` [compound 352, 7-chloro-N-(2-isopropyl-6-methylphenyl)-2,1,3-benzoxadiazole-4-sulfonamide]: the IC50 against APC11/APC2 is at least 20 µM; in experiment [1] (Homo sapiens, A549, ICAM assay), 1 to 20 µM; against TRAF6/Uev1A/Ubc13, at least 20 µM.

As to `Cc1cccc(C)c1NS(=O)(=O)c1ccc(Cl)c2nonc12` [compound 353, 7-chloro-N-(2,6-dimethylphenyl)-2,1,3-benzoxadiazole-4-sulfonamide], the IC50 at APC11/APC2 is at least 20 µM; in experiment [1] (Homo sapiens, A549, ICAM assay), 1 to 20 µM; against TRAF6/Uev1A/Ubc13, at least 20 µM.

On to `Cc1ccc(NS(=O)(=O)c2ccc(Cl)c3nonc23)c(Cl)c1` [compound 354, 7-chloro-N-(2-chloro-4-methylphenyl)-2,1,3-benzoxadiazole-4-sulfonamide], for which the IC50 at APC11/APC2 is at least 20 µM; in experiment [1] (Homo sapiens, A549, ICAM assay), 1 to 20 µM; on TRAF6/Uev1A/Ubc13, at least 20 µM.

For `Cc1cc(C)c(NS(=O)(=O)c2ccc(Cl)c3nonc23)c(C)c1` [compound 355, 7-chloro-N-mesityl-2,1,3-benzoxadiazole-4-sulfonamide], the IC50 at APC11/APC2 is at least 20 µM; in experiment [1] (Homo sapiens, A549, ICAM assay), at least 20 µM; against TRAF6/Uev1A/Ubc13, at least 20 µM.

With `COc1ccccc1NS(=O)(=O)c1ccc(Cl)c2nonc12` [compound 356, 7-chloro-N-(2-methoxyphenyl)-2,1,3-benzoxadiazole-4-sulfonamide], the IC50 on APC11/APC2 is at least 20 µM; in experiment [1] (Homo sapiens, A549, ICAM assay), 1 to 20 µM; on TRAF6/Uev1A/Ubc13, at least 20 µM.

On to `O=S(=O)(Nc1c(F)cc(F)cc1F)c1ccc(Cl)c2nonc12` [compound 357, 7-chloro-N-(2,4,6-trifluorophenyl)-2,1,3-benzoxadiazole-4-sulfonamide], for which the IC50 is at least 20 µM against APC11/APC2; at least 20 µM in experiment [1] (Homo sapiens, A549, ICAM assay); at least 20 µM against TRAF6/Uev1A/Ubc13.

Turning to `Cc1cc(F)ccc1NS(=O)(=O)c1ccc(Cl)c2nonc12` [compound 358, 7-chloro-N-(4-fluoro-2-methylphenyl)-2,1,3-benzoxadiazole-4-sulfonamide], the IC50 at APC11/APC2 is at least 20 µM; in experiment [1] (Homo sapiens, A549, ICAM assay), at least 20 µM; against TRAF6/Uev1A/Ubc13, at least 20 µM.

On to `COc1ccc(OC)c(NS(=O)(=O)c2ccc(Cl)c3nonc23)c1` [compound 359, 7-chloro-N-(2,5-dimethoxyphenyl)-2,1,3-benzoxadiazole-4-sulfonamide], for which the IC50 was at least 20 µM on APC11/APC2; 1 to 20 µM in experiment [1] (Homo sapiens, A549, ICAM assay); at least 20 µM at TRAF6/Uev1A/Ubc13.

With `COC(=O)c1ccc(Cl)cc1NS(=O)(=O)c1ccc(Cl)c2nonc12` [compound 360, methyl 4-chloro-2-{[(7-chloro-2,1,3-benzoxadiazol-4-yl)sulfonyl]amino}benzoate], the IC50 at APC11/APC2 is at least 20 µM; in experiment [1] (Homo sapiens, A549, ICAM assay), 1 to 20 µM; at TRAF6/Uev1A/Ubc13, at least 20 µM.

`COC(=O)c1ccc(Cl)cc1Nc1ccc(S(=O)(=O)Nc2cc(Cl)ccc2C(=O)OC)c2nonc12` [compound 361, methyl 4-chloro-2-(7-[N-{5-chloro-2-(methoxycarbonyl)phenyl}sulfamoyl]-2,1,3-benzoxadiazol-4-ylamino)benzoate]: the IC50 at APC11/APC2 is at least 20 µM; in experiment [1] (Homo sapiens, A549, ICAM assay), at least 20 µM; at TRAF6/Uev1A/Ubc13 it was 1 to 20 µM.

Regarding `COc1cc(Cl)c(C)cc1NS(=O)(=O)c1ccc(Cl)c2nonc12` [compound 362, 7-chloro-N-(4-chloro-2-methoxy-5-methylphenyl)-2,1,3-benzoxadiazole-4-sulfonamide], the IC50 against APC11/APC2 is at least 20 µM; in experiment [1] (Homo sapiens, A549, ICAM assay), 1 to 20 µM; on TRAF6/Uev1A/Ubc13 it was at least 20 µM.

With `O=S(=O)(Nc1ccc2[nH]ccc2c1)c1ccc(Cl)c2nonc12` [compound 363, 7-chloro-N-(1H-indol-5-yl)-2,1,3-benzoxadiazole-4-sulfonamide], the IC50 on APC11/APC2 is at least 20 µM; in experiment [1] (Homo sapiens, A549, ICAM assay), 1 to 20 µM; at TRAF6/Uev1A/Ubc13, at least 20 µM.

With `O=S(=O)(Nc1ccc(F)cc1F)c1ccc(Cl)c2nonc12` [compound 364, 7-chloro-N-(2,4-difluorophenyl)-2,1,3-benzoxadiazole-4-sulfonamide], the IC50 at APC11/APC2 was at least 20 µM; in experiment [1] (Homo sapiens, A549, ICAM assay), at least 20 µM; against TRAF6/Uev1A/Ubc13, at least 20 µM.

Turning to `O=S(=O)(Nc1cc(Cl)ccc1Cl)c1ccc(Cl)c2nonc12` [compound 365, 7-chloro-N-(2,5-dichlorophenyl)-2,1,3-benzoxadiazole-4-sulfonamide], the IC50 against APC11/APC2 was at least 20 µM; in experiment [1] (Homo sapiens, A549, ICAM assay), at least 20 µM; on TRAF6/Uev1A/Ubc13, at least 20 µM.
